Measurements taken from US20090234019A1, “T Type Calcium Channel Inhibitors” (priority 2004, published 2009).
Where two headings read alike, the source gives them in different places.

Experiments:
Jurkat cells [1] = test: Inhibition of calcium entry into Jurkat cells (indo-1 fluorescence); format: cell-based, human
Procedure: Cells were incubated in growth media containing 1 uM of the acetoxy-methyl ester of the Ca2+-sensitive fluorescent dye indo-1 (indo-1/AM; Molecular Probes, Eugene, Oreg.) for 1 h at 37° C. Cells were washed three times in buffer A [10 mM HEPES (pH 7.4), 1 mM MgCl2, 3 mM KCl, 1 mM CaCl2, 140 mM NaCl, 0.1% glucose, and 1% fetal bovine serum] and suspended to a final concentration of 10^6 cells/ml. Before stimulation, cells were warmed to 37° C. Changes in [Ca2+]i were monitored in an SLM […] spectrofluorimeter (SLM/Aminco; Urbana, Ill.) using previously published methods ([…]., Szabo, G., and Gray, L. S. 1996. A voltage operable current is involved in activation-induced Ca^2+ entry in human lymphocytes whereas ICRAC has no apparent role. Am. J. Physiol. 271:[…]., and Gray, L. S. 1998. Calmodulin regulation of Ca^2+ entry in Jurkat T cells. Cell Calcium 23:361-368).

Jurkat cells [2] = test: Inhibition of proliferation of Jurkat cells; format: cell-based, human
Procedure: (§1) Cancer cell lines were obtained from the American Type Culture Collection (Manassas, Va.). Cell lines were maintained in RPMI1640 supplemented with glutamine and 5% fetal bovine serum containing SerXtend (Irvine Scientific) when appropriate insulin, as directed by the ATCC. The fetal bovine serum used for culture was heat-inactivated by maintaining the serum at 56° C. for 1 h. Cell lines used were a T celleukemia (Jurkat), prostate cancer (PC3, DU145, LNCAP), breast cancer (MDA468, MDA361, MCF7), pancreatic cancer (MIA PaCa2), liver cancer (Hep G2), lung cancer (A549, NCl H460), colon cancer (HT29, HCT 116), and ovarian cancer (SK-OV-3).
(§2) LNCaP cells at 2.5×10^4 cells/well or PC-3 cells at 5×10^4 cells/well, both in a final volume of […], were plated in triplicate in standard flat-bottomed 96-well tissue culture plates in the presence of drug or vehicle (DMSO). Unless otherwise indicated, cells were grown for 48 h at 37° C. in a CO2 incubator. Relative cell growth was determined with the CellTiter 96 aqueous cell proliferation assay (Promega, Madison, Wis.) as described by the manufacturer using an automated plate reader. Results were calculated in a blinded fashion and are the means of triplicate determinations.

MDA-231 cells [3] = test: Inhibition of proliferation of MDA-231 cells; format: cell-based; conditions: Homo sapiens, read-out: prolif: IC50 for inhibition of proliferation, MDA-231
LNCaP cells [4] = test: Inhibition of proliferation of LNCaP cells; format: cell-based; conditions: Homo sapiens, read-out: prolif: IC50 for inhibition of proliferation, LNCaP
Procedure: as §1, §2

MDA-435 cells [5] = test: Inhibition of proliferation of MDA-435 cells; format: cell-based; conditions: read-out: prolif: IC50 for inhibition of proliferation, MDA-435
PC3 cells = test: Inhibition of proliferation of PC3 cells; format: cell-based, human; conditions: Homo sapiens, PC-3, PC3, read-out: prolif: IC50 for inhibition of proliferation, PC3
Procedure: as §1, §2

MDA-361 cells [6] = test: Inhibition of proliferation of MDA-361 cells; format: cell-based; conditions: MDA361, NE = no effect at highest concentration of drug tested, read-out: prolif: IC50 for inhibition of proliferation, MDA-361
Procedure: as §1, §2

LNCaP cells [7] = test: Inhibition of calcium entry into LNCaP cells; format: cell-based; conditions: Homo sapiens, NE = no effect at highest concentration of drug tested, read-out: Ca2+: IC50 for inhibition of calcium entry, LNCaP
Procedure: (§3) Cells were incubated in growth media containing 1 uM of the acetoxy-methyl ester of the Ca2+-sensitive fluorescent dye indo-1 (indo-1/AM; Molecular Probes, Eugene, Oreg.) for 1 h at 37° C. Cells were washed three times in buffer A [10 mM HEPES (pH 7.4), 1 mM MgCl2, 3 mM KCl, 1 mM CaCl2, 140 mM NaCl, 0.1% glucose, and 1% fetal bovine serum] and suspended to a final concentration of 10^6 cells/ml. Before stimulation, cells were warmed to 37° C. Changes in [Ca2+]i were monitored in an SLM 8100C spectrofluorimeter (SLM/Aminco; Urbana, Ill.) using previously published methods (Densmore, J. J., Haverstick, D. M., Szabo, G., and Gray, L. S. 1996. A voltage operable current is involved in activation-induced Ca^2+ entry in human lymphocytes whereas ICRAC has no apparent role. Am. J. Physiol. 271:C1494-C1503; Haverstick, D. M., Densmore, J. J., and Gray, L. S. 1998. Calmodulin regulation of Ca^2+ entry in Jurkat T cells. Cell Calcium 23:361-368).

MDA-231 cells [8] = test: Inhibition of calcium entry into MDA-231 cells; format: cell-based; conditions: Homo sapiens, MDA-MB-231, NE = no effect at highest concentration of drug tested, read-out: Ca2+: IC50 for inhibition of calcium entry, MDA-231
Procedure: as §3

MDA-435 cells [9] = test: Inhibition of calcium entry into MDA-435 cells; format: cell-based; conditions: MDA435, NE = no effect at highest concentration of drug tested, read-out: Ca2+: IC50 for inhibition of calcium entry, MDA-435
Procedure: as §3

MDA-361 cells [10] = test: Inhibition of calcium entry into MDA-361 cells; format: cell-based; conditions: MDA361, NE = no effect at highest concentration of drug tested, read-out: Ca2+: IC50 for inhibition of calcium entry, MDA-361
Procedure: as §3

[11] = Homo sapiens, Jurkat cell line, Tables 1 and 2, unit inferred, read-out: IC50 for inhibition of Ca^2+ entry
[12] = Homo sapiens, Jurkat cell line, Tables 1 and 2, unit inferred, read-out: IC50 for inhibition of proliferation
[13] = MDA-MB-231, NE = no effect at highest concentration of drug tested
[14] = Homo sapiens, Jurkat, NE = no effect at highest concentration of drug tested, read-out: Ca2+: IC50 for inhibition of calcium entry, Jurkat
[15] = NE = no effect at highest concentration of drug tested
[16] = Homo sapiens, Jurkat, NE = no effect at highest concentration of drug tested, read-out: prolif: IC50 for inhibition of proliferation, Jurkat
[17] = MDA435, NE = no effect at highest concentration of drug tested

Compound	IC50 (Jurkat cells [1]; [11]) [µM]	IC50 (Jurkat cells [2]; [12]) [µM]	IC50 (MDA-231 cells [3]; [13]) [mM]	IC50 (Jurkat cells [1]; [14]) [µM]	IC50 (LNCaP cells [4]; [15]) [mM]	IC50 (Jurkat cells [2]; [16]) [µM]	IC50 (MDA-435 cells [5]; [17]) [mM]	IC50 (PC3 cells; [15]) [mM]	further results
COc1ccc2cc1Oc1ccc(cc1)C[C@H]1c3cc(c(OC)cc3CCN1C)Oc1c(OC)c(OC)cc3c1[C@H](C2)N(C)CC3 [Tetrandrine]	10	3	–	–	–	–	–	–	–
CCC(=O)c1ccc2c(c1)N(CC(C)N(C)C)c1ccccc1S2 (stereo not shown) [Propiomazine]	30	30	–	–	–	–	–	–	–
COc1ccc(CC[N+](C)(C)CCOC(c2ccccc2)c2ccc(Cl)cc2)cc1 (stereo not shown) [Compound 3.16]	–	–	0.021	30	0.033	23	0.05	0.055	IC50 (MDA-361 cells [6]): 8 µM; IC50 (LNCaP cells [7]): 10 µM
COc1ccc(CCCCCNCC(c2ccccc2)c2ccc(Cl)cc2)cc1 (stereo not shown) [Compound 3.22]	–	–	0.025	3	0.009	13	0.04	0.009	IC50 (MDA-231 cells [8]): 10 µM
CN1CCN(C(c2ccccc2)c2ccc(Cl)cc2)CC1 (stereo not shown) [Chlorcyclizine]	25	90	–	–	–	–	–	–	–
CC(NCCC(c1ccccc1)c1ccccc1)c1ccccc1 (stereo not shown) [Fendiline]	10	30	–	–	–	–	–	–	–
COc1ccc(CCNCCCCC(c2ccccc2)c2ccc(Cl)cc2)cc1 (stereo not shown) [Compound 3.19]	–	–	0.006	10	0.003	4	0.011	0.01	IC50 (MDA-435 cells [9]): 10 µM; IC50 (LNCaP cells [7]): 10 µM; IC50 (MDA-231 cells [8]): 10 µM
CC(NC(C)(C)C)C(=O)c1cccc(Cl)c1 (stereo not shown) [Bupropion]	> 100	> 100	–	–	–	–	–	–	–
COc1ccc(CCCNCCCC(c2ccccc2)c2ccc(Cl)cc2)cc1 (stereo not shown) [Compound 3.3]	–	–	> 0.1	60	0.042	70	> 0.1	> 0.1	IC50 (MDA-231 cells [8]): 100 µM
Prenylamine lactate	–	–	–	–	–	–	–	–	IC50 (Jurkat cells [1]; Jurkat cell line, Tables 1 and 2, unit inferred, read-out: IC50 for inhibition of Ca^2+ entry): 10 µM; IC50 (Jurkat cells [2]; Jurkat cell line, Tables 1 and 2, unit inferred, read-out: IC50 for inhibition of proliferation): 10 µM
COc1ccc(CNCc2ccccc2COC(c2ccccc2)c2ccc(Cl)cc2)cc1 (stereo not shown) [Compound 3.11]	–	–	0.0116	3.3	0.0033	5.4	0.022	0.014	IC50 (MDA-361 cells [6]): 8.5 µM; IC50 (MDA-231 cells [8]): 20 µM; IC50 (MDA-361 cells [10]): 10 µM
COC(=O)C1=C(C)NC(C)=C(C(=O)OC(C)C)C1c1cccc2nonc12 (stereo not shown) [Isradipine]	10	100	–	–	–	–	–	–	–
COc1ccc(CCNc2ccccc2COC(c2ccccc2)c2ccc(Cl)cc2)cc1 (stereo not shown) [Compound 3.10]	–	–	–	–	–	> 300	–	–	IC50 (MDA-231 cells [3]; MDA-MB-231, mM): > 1 mM; IC50 (LNCaP cells [4]; mM): > 1 mM; IC50 (MDA-435 cells [5]; MDA435, mM): > 1 mM; IC50 (PC3 cells; mM): > 1 mM; IC50 (MDA-361 cells [6]): ~70 µM
O=c1[nH]c2ccccc2n1C1CCN(CCCC(c2ccc(F)cc2)c2ccc(F)cc2)CC1 [Pimozide]	> 100	> 100	–	–	–	–	–	–	–
COc1ccc(CCCCCCNC(c2ccccc2)c2ccc(Cl)cc2)cc1 (stereo not shown) [Compound 3.23]	–	–	> 0.1	–	~0.1	~30	> 0.1	> 0.1	–
